Experiments:
human islets β-cells = experiment: Detection of IL-1β expressing β-cells in cultured human islets (double immunostaining); format: cell-based; details: 33.3 mM glucose, 4 days, co-incubation with IL-1Ra
Method: Islet isolation and culture. Islets were isolated from pancreases of eleven organ donors at the Department of Surgery, University of Geneva Medical Center, as described (32-34). The islet purity was >95%, as judged by dithizone staining (if this degree of purity was not primarily achieved by routine isolation, islets were handpicked). […] For long-term in vitro studies, the islets were cultured on extracellular matrix-coated plates derived from bovine corneal endothelial cells (Novamed Ltd., Jerusalem, Israel), allowing the cells to attach to the dishes and spread, preserving their functional integrity (7;35). Islets were cultured in CMRL 1066 medium containing 100 U/ml penicillin, 100 μg/ml streptomycin and 10% fetal calf serum (Gibco, Gaithersburg, Md.), hereinafter referred to as culture medium. Two days after plating, when most islets were attached and began to flatten, the medium was changed to culture medium containing 5.5, 11.1 or 33.3 mM glucose. In some experiments, islets were additionally cultured with 2 ng/ml recombinant human IL-1β, 1000 U/ml recombinant human IFNγ (ReproTech EC Ltd, London, UK), 500 ng/ml IL-1β receptor antagonist (IL-1Ra) (R&D Systems Inc., Minneapolis, Minn.), 1 ng/ml membrane bound Fas-ligand (FasL) (36) (upstate biotechnology, Lake Placid, N.Y.) or with 100 μM pyrrolidinedithiocarbamate (PDTC; Sigma; 2 h per 2 d of culture). […]

NF-κB = NF-κB activation in human islets; format: cell-based; details: 33.3 mM glucose with IL-1Ra 500 ng/ml, 44 hours
Method: Western blot analysis. Islets were cultured in a culture medium in non-adherent plastic dishes. One day after isolation, the medium was changed and groups of 200 islets were incubated for 44 hours in culture medium containing 5.5 or 33.3 mM glucose without or with 2 ng/ml IL-1β or 500 ng/ml IL-1Ra. At the end of the incubations, islets were washed in PBS, suspended in 50 μl sample buffer containing 125 mM Tris-HCl, pH 6.8, 4% SDS, 10% glycerol, 0.3% bromphenol blue, 1.8% β-mercaptoethanol and boiled for 5 min. Equivalent amounts of each treatment group were run on 15% SDS polyacrylamide gels. […] Intensity of bands was analyzed using Multianalyst™ (Bio Rad, Laboratories inc., Hercules, Calif.). […] Activation of NF-κB complex was quantified with an ELISA-based Kit, using attached oligonucleotides binding to a NF-κB consensus site and detected by an anti-p65 or p50 subunit antibody, according to the manufacturer's instructions (Trans-AM™ NFκB, Active Motif). […] Sections were incubated with mouse anti-NF-κB (p65) (1:50 dilution) or rabbit anti-IκB (1:50 dilution, C-21, Santa Cruz) antibodies, detected by donkey anti-mouse or anti-rabbit Cy3 conjugated antibodies and double stained for insulin as described above.

## Interleukin 1 receptor antagonist [IL-1Ra]
Human islets β-cells
  IL-1β positive β-cells (double immunostaining): displayed similar results
NF-κB
  glucose-induced increase in NF-κB activity: prevented

Source: US7572770B2, “Use of an interleukin 1 receptor antagonist and/or pyrrolidinedithiocarbamate for the treatment or prophylaxis of type 2 diabetes” (University of Zurich, priority 2002, dated 2009)
